Results on 18 compounds are retold here after US10259810B2, “N-sulfonylated pyrazolo[3,4-b]pyridin-6-carboxamides and method of use” (AbbVie S.à.r.l., priority 2015, dated 2019).

The target of assay [1] is T1, ΔF508-CFTR (Homo sapiens, UniProt P13569, DEL508-508).
T1 construct: host or cells: CFBE41o-, doxycycline-inducible
Briefly: CFTR cell surface levels using HRP-tagged ΔF508-CFTR expressing CFBE cells, in the presence of a co-corrector. The assay is classed as cell-based. An outline of the steps: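 Chemiluminescent read-out of surface HRP (15 min, dark) after PBS washes. Activity is normalized as 100×(sample−DMSO)/(3 μM co-corrector alone−DMSO).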

Assay [2] addresses T1, ΔF508-CFTR. Briefly: CFTR cell surface levels using HRP-tagged ΔF508-CFTR expressing CFBE cells, intrinsic corrector capacity. The assay is classed as cell-based. Further details: % Activation: concentration or dose not given beside the values. An outline of the steps: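 Read-out: chemiluminescent HRP activity of ECL4-HRP-tagged ΔF508-CFTR at the cell surface, 15 min substrate in dark. Normalized as 100×(sample−DMSO)/(positive control−DMSO).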

[3] abbreviates: HRP-tagged ΔF508-CFTR CFBE cells, in the presence of 3 μM co-corrector.
Where [4] appears, read: HRP-tagged ΔF508-CFTR expressing CFBE41o- cells, compound alone (intrinsic corrector capacity), 20 hours at 33° C.
Setting [5] is: HRP-tagged ΔF508-CFTR CFBE cells, in the presence of 3 μM co-corrector, read-out: EC50.
[6] abbreviates: HRP-tagged ΔF508-CFTR expressing CFBE41o- cells, compound alone (intrinsic corrector capacity), 20 hours at 33° C., read-out: EC50.

T1 sequence (P13569 with tags, fused parts or gaps DEL508-508): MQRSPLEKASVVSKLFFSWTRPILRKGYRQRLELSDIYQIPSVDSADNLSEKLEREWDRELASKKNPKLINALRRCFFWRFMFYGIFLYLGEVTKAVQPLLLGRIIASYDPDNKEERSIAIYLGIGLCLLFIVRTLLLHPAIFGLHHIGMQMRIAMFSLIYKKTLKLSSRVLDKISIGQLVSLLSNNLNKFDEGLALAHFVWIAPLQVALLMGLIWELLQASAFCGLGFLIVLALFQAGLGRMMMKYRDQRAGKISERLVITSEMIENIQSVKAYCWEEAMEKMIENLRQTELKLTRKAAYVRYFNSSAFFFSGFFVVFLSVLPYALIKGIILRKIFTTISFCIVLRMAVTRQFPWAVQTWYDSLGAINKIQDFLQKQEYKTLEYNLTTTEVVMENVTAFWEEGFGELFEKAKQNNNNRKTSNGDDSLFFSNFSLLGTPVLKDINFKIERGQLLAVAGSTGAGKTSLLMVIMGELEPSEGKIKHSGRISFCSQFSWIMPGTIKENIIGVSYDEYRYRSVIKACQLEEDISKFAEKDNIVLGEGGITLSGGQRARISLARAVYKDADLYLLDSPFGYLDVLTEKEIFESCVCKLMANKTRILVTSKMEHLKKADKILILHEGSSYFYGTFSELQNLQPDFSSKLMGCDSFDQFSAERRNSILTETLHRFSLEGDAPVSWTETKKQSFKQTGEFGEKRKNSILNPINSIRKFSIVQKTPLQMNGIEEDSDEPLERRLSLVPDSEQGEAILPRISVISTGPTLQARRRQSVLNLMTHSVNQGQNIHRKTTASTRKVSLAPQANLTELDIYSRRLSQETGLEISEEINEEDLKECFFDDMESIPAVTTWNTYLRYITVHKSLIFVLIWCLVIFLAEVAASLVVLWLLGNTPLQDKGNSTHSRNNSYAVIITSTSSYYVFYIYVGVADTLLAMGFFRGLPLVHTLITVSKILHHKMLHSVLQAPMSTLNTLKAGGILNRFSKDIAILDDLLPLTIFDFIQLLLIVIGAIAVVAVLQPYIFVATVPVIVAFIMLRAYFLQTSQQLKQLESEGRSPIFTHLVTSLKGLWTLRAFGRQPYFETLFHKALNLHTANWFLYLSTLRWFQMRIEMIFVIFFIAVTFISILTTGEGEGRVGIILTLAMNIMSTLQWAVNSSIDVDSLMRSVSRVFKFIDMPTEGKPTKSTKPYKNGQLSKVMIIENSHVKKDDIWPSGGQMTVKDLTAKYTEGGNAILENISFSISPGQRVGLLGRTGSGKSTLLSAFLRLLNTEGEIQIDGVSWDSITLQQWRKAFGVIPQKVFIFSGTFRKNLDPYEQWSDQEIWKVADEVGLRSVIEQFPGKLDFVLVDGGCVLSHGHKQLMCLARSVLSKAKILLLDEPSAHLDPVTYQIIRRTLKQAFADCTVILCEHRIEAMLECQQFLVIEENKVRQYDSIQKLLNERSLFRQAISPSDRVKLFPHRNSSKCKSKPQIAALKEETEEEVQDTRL

As for `O=C(NS(=O)(=O)CCCN1CCOCC1)c1cc(N2CCC(N3CCCCC3)CC2)c2c(C3CCC3)nn(-c3ccccc3)c2n1` [Compound 454, 4-([1,4′-bipiperidin]-1′-yl)-3-cyclobutyl-N-[3-(morpholin-4-yl)propane-1-sulfonyl]-1-phenyl-1H-pyrazolo[3,4-b]pyridine-6-carboxamide], the EC50 on ΔF508-CFTR [1] came to 639 nM; on ΔF508-CFTR [2], 1670 nM. Also, the “% Activation” value came to 430.2% at ΔF508-CFTR [1] (setting [3]) and 168.1% on ΔF508-CFTR [2] (setting [4]).

For the compound `CCOC(=O)N1CCC(NS(=O)(=O)NC(=O)c2cc(N3CCC(CN4CCCC4)CC3)c3c(C4CCC4)nn(-c4ccccc4)c3n2)CC1` [Compound 457, ethyl 4-{[(3-cyclobutyl-1-phenyl-4-{4-[(pyrrolidin-1-yl)methyl]piperidin-1-yl}-1H-pyrazolo[3,4-b]pyridine-6-carbonyl)sulfamoyl]amino}piperidine-1-carboxylate], the “% Activation” value stood at 508% at ΔF508-CFTR [1] (setting [3]) and 272.2% on ΔF508-CFTR [2] (setting [4]). Also, the EC50 at ΔF508-CFTR [1] (setting [5]) stood at 139 nM; at ΔF508-CFTR [2] (setting [6]), 128 nM.

With `COC[C@H]1CCCN1C1CCN(S(=O)(=O)NC(=O)c2cc(N3CCC(CN4CCCC4)CC3)c3c(C4CCC4)nn(-c4ccccc4)c3n2)CC1` [Compound 458, 3-cyclobutyl-N-{4-[(2R)-2-(methoxymethyl)pyrrolidin-1-yl]piperidine-1-sulfonyl}-1-phenyl-4-{4-[(pyrrolidin-1-yl)methyl]piperidin-1-yl}-1H-pyrazolo[3,4-b]pyridine-6-carboxamide], the “% Activation” value on ΔF508-CFTR [1] (setting [3]) was 282.8%; on ΔF508-CFTR [2] (setting [4]), 124.4%. In addition, the EC50 was determined as 920 nM at ΔF508-CFTR [1] (setting [5]) and 794 nM on ΔF508-CFTR [2] (setting [6]).

On to `O=C(NS(=O)(=O)N1CCC(F)CC1)c1cc(N2CCC(CN3CCCC3)CC2)c2c(C3CCC3)nn(-c3ccccc3)c2n1` [Compound 459, 3-cyclobutyl-N-(4-fluoropiperidine-1-sulfonyl)-1-phenyl-4-{4-[(pyrrolidin-1-yl)methyl]piperidin-1-yl}-1H-pyrazolo[3,4-b]pyridine-6-carboxamide], for which the “% Activation” value at ΔF508-CFTR [1] (setting [3]) amounted to 388.87%; at ΔF508-CFTR [2] (setting [4]), 225.65%. Moreover, the results for the concentration giving a half-maximal response (EC50) at ΔF508-CFTR [1] (setting [5]) and on ΔF508-CFTR [2] (setting [6]) were 96.1 nM and 149 nM, respectively.

In the case of `CN1CCN(S(=O)(=O)NC(=O)c2cc(N3CCC(CN4CCCC4)CC3)c3c(C4CCC4)nn(-c4ccccc4)c3n2)CC1` [Compound 460, 3-cyclobutyl-N-(4-methylpiperazine-1-sulfonyl)-1-phenyl-4-{4-[(pyrrolidin-1-yl)methyl]piperidin-1-yl}-1H-pyrazolo[3,4-b]pyridine-6-carboxamide], the “% Activation” value on ΔF508-CFTR [1] (setting [3]) was found to be 306.75%; on ΔF508-CFTR [2] (setting [4]), 125.8%. Also, the EC50 at ΔF508-CFTR [1] (setting [5]) worked out at 505 nM; on ΔF508-CFTR [2] (setting [6]), 596 nM.

In the case of `CC1(S(=O)(=O)NC(=O)c2cc(N3CCC(CN4CCCC4)CC3)c3c(C4CCC4)nn(-c4ccccc4)c3n2)CC1` [Compound 461, 3-cyclobutyl-N-(1-methylcyclopropane-1-sulfonyl)-1-phenyl-4-{4-[(pyrrolidin-1-yl)methyl]piperidin-1-yl}-1H-pyrazolo[3,4-b]pyridine-6-carboxamide], the “% Activation” value at ΔF508-CFTR [1] (setting [3]) was found to be 364.1%; at ΔF508-CFTR [2] (setting [4]), 212.3%. Also, the EC50 on ΔF508-CFTR [1] (setting [5]) was 177 nM; at ΔF508-CFTR [2] (setting [6]), 209 nM.

For the compound `O=C(NS(=O)(=O)C1CC1)c1cc(N2CCC(CN3CCCC3)CC2)c2c(C3CCC3)nn(-c3ccccc3)c2n1` [Compound 462, 3-cyclobutyl-N-(cyclopropanesulfonyl)-1-phenyl-4-{4-[(pyrrolidin-1-yl)methyl]piperidin-1-yl}-1H-pyrazolo[3,4-b]pyridine-6-carboxamide], the “% Activation” value on ΔF508-CFTR [1] (setting [3]) was found to be 495.1%; on ΔF508-CFTR [2] (setting [4]), 317.4%. The concentration giving a half-maximal response (EC50) on ΔF508-CFTR [1] (setting [5]) is 107 nM; on ΔF508-CFTR [2] (setting [6]), 776 nM.

Consider `CCS(=O)(=O)NC(=O)c1cc(N2CCC(CN3CCCC3)CC2)c2c(C3CCC3)nn(-c3ccccc3)c2n1` [Compound 463, 3-cyclobutyl-N-(ethanesulfonyl)-1-phenyl-4-{4-[(pyrrolidin-1-yl)methyl]piperidin-1-yl}-1H-pyrazolo[3,4-b]pyridine-6-carboxamide], for which the entries for the “% Activation” value at ΔF508-CFTR [1] (setting [3]) and on ΔF508-CFTR [2] (setting [4]) were 490.6% and 263.9%, respectively. The EC50 at ΔF508-CFTR [1] (setting [5]) was determined as 194 nM; at ΔF508-CFTR [2] (setting [6]), 419 nM.

On to `COCCS(=O)(=O)NC(=O)c1cc(N2CCC(CN3CCCC3)CC2)c2c(C3CCC3)nn(-c3ccccc3)c2n1` [Compound 464, 3-cyclobutyl-N-(2-methoxyethanesulfonyl)-1-phenyl-4-{4-[(pyrrolidin-1-yl)methyl]piperidin-1-yl}-1H-pyrazolo[3,4-b]pyridine-6-carboxamide], for which the “% Activation” value at ΔF508-CFTR [1] (setting [3]) is 423.3%; at ΔF508-CFTR [2] (setting [4]) it was 277.5%. Also, the half-maximal effective concentration (EC50) came out at 170 nM on ΔF508-CFTR [1] (setting [5]) and 306 nM on ΔF508-CFTR [2] (setting [6]).

In the case of `CC(C)(C)S(=O)(=O)NC(=O)c1cc(N2CCC(CN3CCCC3)CC2)c2c(C3CCC3)nn(-c3ccccc3)c2n1` [Compound 465, 3-cyclobutyl-N-(2-methylpropane-2-sulfonyl)-1-phenyl-4-{4-[(pyrrolidin-1-yl)methyl]piperidin-1-yl}-1H-pyrazolo[3,4-b]pyridine-6-carboxamide], the “% Activation” value came to 293.15% at ΔF508-CFTR [1] (setting [3]) and 131.6% at ΔF508-CFTR [2] (setting [4]). Besides, the EC50 on ΔF508-CFTR [1] (setting [5]) stood at 360 nM; at ΔF508-CFTR [2] (setting [6]) it was 313 nM.

Regarding `CCS(=O)(=O)NC(=O)c1cc(N2CCC(N3CCOCC3)CC2)c2c(C3CCC3)nn(-c3ccc(F)cc3)c2n1` [Compound 466, 3-cyclobutyl-N-(ethanesulfonyl)-1-(4-fluorophenyl)-4-[4-(morpholin-4-yl)piperidin-1-yl]-1H-pyrazolo[3,4-b]pyridine-6-carboxamide], the results for the “% Activation” value on ΔF508-CFTR [1] (setting [3]) and at ΔF508-CFTR [2] (setting [4]) were 522.47% and 318.7%, respectively. The EC50 at ΔF508-CFTR [1] (setting [5]) came out at 64.1 nM; at ΔF508-CFTR [2] (setting [6]), 176 nM.

With `CN(C)S(=O)(=O)NC(=O)c1cc(-c2ccc(CN3CCOCC3)cc2)c2c(C3CCC3)nn(C3CCCCC3)c2n1` [Compound 475, 3-cyclobutyl-1-cyclohexyl-N-(dimethylsulfamoyl)-4-{4-[(morpholin-4-yl)methyl]phenyl}-1H-pyrazolo[3,4-b]pyridine-6-carboxamide], the “% Activation” value at ΔF508-CFTR [1] (setting [3]) was determined as 289.95%; on ΔF508-CFTR [2] (setting [4]), 140.1%. The concentration for a half-maximal effect (EC50) at ΔF508-CFTR [1] (setting [5]) came out at 112 nM; at ΔF508-CFTR [2] (setting [6]), 179 nM.

`CN(C)S(=O)(=O)NC(=O)c1cc(-c2ccc(CCN3CCOCC3)cc2)c2c(C3CCC3)nn(C3CCCCC3)c2n1` [Compound 476, 3-cyclobutyl-1-cyclohexyl-N-(dimethylsulfamoyl)-4-{4-[2-(morpholin-4-yl)ethyl]phenyl}-1H-pyrazolo[3,4-b]pyridine-6-carboxamide]: the “% Activation” value on ΔF508-CFTR [1] (setting [3]) came to 355.65%; at ΔF508-CFTR [2] (setting [4]) it was 134.2%. Besides, the results for the EC50 at ΔF508-CFTR [1] (setting [5]) and on ΔF508-CFTR [2] (setting [6]) were 151 nM and 215 nM, respectively.

Consider `C#CCCS(=O)(=O)NC(=O)c1cc(N2CCC(N3CCOCC3)CC2)c2c(C3CCC3)nn(-c3ccc(F)cc3)c2n1` [Compound 477, N-(but-3-yne-1-sulfonyl)-3-cyclobutyl-1-(4-fluorophenyl)-4-[4-(morpholin-4-yl)piperidin-1-yl]-1H-pyrazolo[3,4-b]pyridine-6-carboxamide], for which the “% Activation” value at ΔF508-CFTR [1] (setting [3]) worked out at 536.7%; at ΔF508-CFTR [2] (setting [4]), 341.4%. Further, the figures for the EC50 at ΔF508-CFTR [1] (setting [5]) and on ΔF508-CFTR [2] (setting [6]) were 34.7 nM and 117 nM, respectively.

As to `CCS(=O)(=O)NC(=O)c1cc(N2CCC(N3CCCCC3)CC2)c2c(C3CCC3)nn(-c3ccc(F)cc3)c2n1` [Compound 478, 4-([1,4'-bipiperidin]-1'-yl)-3-cyclobutyl-N-(ethanesulfonyl)-1-(4-fluorophenyl)-1H-pyrazolo[3,4-b]pyridine-6-carboxamide], the “% Activation” value stood at 476.7% on ΔF508-CFTR [1] (setting [3]) and 295.4% at ΔF508-CFTR [2] (setting [4]). Besides, the EC50 stood at 127 nM on ΔF508-CFTR [1] (setting [5]) and 2640 nM at ΔF508-CFTR [2] (setting [6]).

In the case of `CN(C)S(=O)(=O)NC(=O)c1cc(-c2ccc(CN3CCOCC3)cc2)c2c(OC3CCC3)nn(C3CCCCC3)c2n1` [Compound 481, 3-(cyclobutyloxy)-1-cyclohexyl-N-(dimethylsulfamoyl)-4-{4-[(morpholin-4-yl)methyl]phenyl}-1H-pyrazolo[3,4-b]pyridine-6-carboxamide], the “% Activation” value on ΔF508-CFTR [1] (setting [3]) is 285.65%; at ΔF508-CFTR [2] (setting [4]), 114.2%. Moreover, the EC50 was determined as 154 nM on ΔF508-CFTR [1] (setting [5]) and 278 nM at ΔF508-CFTR [2] (setting [6]).

Take `CC(C)N(C)S(=O)(=O)NC(=O)c1cc(N2CCC(N3CCOCC3)CC2)c2c(C3CCC3)nn(-c3ccc(F)cc3)c2n1` [Compound 482, 3-cyclobutyl-1-(4-fluorophenyl)-N-[methyl(propan-2-yl)sulfamoyl]-4-[4-(morpholin-4-yl)piperidin-1-yl]-1H-pyrazolo[3,4-b]pyridine-6-carboxamide]: the “% Activation” value at ΔF508-CFTR [1] (setting [3]) was determined as 436.4%; at ΔF508-CFTR [2] (setting [4]), 214.1%. Further, the EC50 at ΔF508-CFTR [1] (setting [5]) turned out to be 61.6 nM; on ΔF508-CFTR [2] (setting [6]), 88.2 nM.

On to `CCN(C)S(=O)(=O)NC(=O)c1cc(N2CCC(N3CCOCC3)CC2)c2c(C3CCC3)nn(-c3ccc(F)cc3)c2n1` [Compound 483, 3-cyclobutyl-N-[ethyl(methyl)sulfamoyl]-1-(4-fluorophenyl)-4-[4-(morpholin-4-yl)piperidin-1-yl]-1H-pyrazolo[3,4-b]pyridine-6-carboxamide], for which the “% Activation” value was found to be 438.2% on ΔF508-CFTR [1] (setting [3]) and 212.7% at ΔF508-CFTR [2] (setting [4]). Also, the EC50 on ΔF508-CFTR [1] (setting [5]) is 56.1 nM; on ΔF508-CFTR [2] (setting [6]), 84.9 nM.
